Experimental data reported in US12454525B2, “IL4I1 inhibitors and methods of use” (Merck Sharp & Dohme LLC, priority 2020, dated 2025).

biological target: T1, recombinant IL4I1 (Homo sapiens, UniProt Q96RQ9); assay: IL4I1 Enzymatic Assay (Amplex Red/HRP coupled H2O2 detection); assay type: biochemical; conditions: 240 min; four-hour pre-incubation with compound; 1 nM IL4I1, 1 mM each Phe/Tyr/Trp; ten-point titration; fluorescence readout; read-out: Potency EC50 (nM) (240 min)
T1 construct: purchased R&D Systems 5684-AO-020
T1 sequence (Q96RQ9 22-567): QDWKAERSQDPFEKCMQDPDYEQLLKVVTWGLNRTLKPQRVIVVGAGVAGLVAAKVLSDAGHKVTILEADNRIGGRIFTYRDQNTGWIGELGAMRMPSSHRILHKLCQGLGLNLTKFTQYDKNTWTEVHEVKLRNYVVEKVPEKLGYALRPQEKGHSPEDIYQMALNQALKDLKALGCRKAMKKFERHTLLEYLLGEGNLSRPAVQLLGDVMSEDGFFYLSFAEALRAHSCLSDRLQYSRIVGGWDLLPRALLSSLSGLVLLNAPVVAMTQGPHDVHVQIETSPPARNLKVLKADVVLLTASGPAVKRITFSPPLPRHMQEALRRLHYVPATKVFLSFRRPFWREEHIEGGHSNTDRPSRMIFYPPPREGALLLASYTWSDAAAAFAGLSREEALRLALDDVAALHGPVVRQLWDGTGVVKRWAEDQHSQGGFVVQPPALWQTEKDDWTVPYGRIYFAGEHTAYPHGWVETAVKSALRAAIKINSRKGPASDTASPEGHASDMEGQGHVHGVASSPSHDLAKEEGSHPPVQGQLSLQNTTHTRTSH
Procedure: Interleukin 4 inducible protein 1 (IL4I1) is an L-amino oxidase that catalyzes the oxidation of aromatic residues (Phe, Trp and Tyr): L-amino acid+H2O+O2→2-oxo acid+NH3+H2O2. Equal molar of H2O2 and the corresponding alpha-ketoacid are produced when IL4I1 and substrate are added. In this assay, the hydrogen peroxide generated by IL4I1 is then detected through a coupled reaction with Amplex Red (10-acetyl-3,7-dihydroxyphenoxazine) and […] (HRP) to produce Resorufin product that could be detected in the form of fluorescence signals. The assessment of the inhibitory effect of small molecules (EC50) on IL4I1 is measured by the effectiveness of the compounds to inhibit the production of H2O2.
Using this assay, the potency (EC50) of each compound was determined from a ten-point (1:3 serial dilution) titration curve using the following outlined procedure. To each well of a black flat-bottom Greiner (Cat #781076) 384 well-plate, 25 nL of compound (0.1% DMSO in final assay volume of 25 μL) was dispensed, followed by the addition of 12.5 μL of 1x assay buffer (50 mM Hepes 7.0 and 0.005% Tween20 (Sigma, Cat #P8341; low peroxide grade)) containing 2 nM of recombinant IL4I1 (R&D Systems, Cat #5684-AO-020). Plates were placed in an ambient temperature humidified chamber for a four-hour pre-incubation with compound. Subsequently, each reaction was initiated by the addition of 12.5 μL 1x assay buffer containing 2 mM of each aromatic amino acids (Phe/Tyr/Trp), 0.1 mM Amplex Red and 2 U/mL of HRP. The final reaction in each well of 25 μL consists of 1 nM of IL411, 1 mM of each residues (Phe, Tyr and Trp), 0.05 mM Amplex Red and 1 U/mL of HRP. It should be noted that the concentrations of Amplex Red and HRP used here are in excess such that the conversion of H2O2 to Resorufin product occurs instantaneously and non-rate limiting. Reactions were allowed to proceed for 120 minutes followed by fluorescence readout on a Spectramax with the following set parameters: 544 nm excitation/590 nm emission, 570 nm cutoff (EnVision is an alternative reader). Dose-response curves were generated by plotting percent effect (% product conversion; Y-axis) vs. Log10 compound concentrations (X-axis). EC50 values were calculated using a non-linear regression, four-parameters sigmoidal dose-response model and are shown in Table 16.

Compared with `CN(C)C(=O)Cc1ccc(Cn2c(=O)[nH]c3ccc(F)cc32)cc1` [Example 66, 2-(4-((6-fluoro-2-oxo-2,3-dihydro-1H-benzo[d]imidazol-1-yl)methyl)phenyl)-N,N-dimethylacetamide], `O=C1CCCN1Cc1ccc(Cn2c(=O)[nH]c3ccc(F)cc32)cc1` (single isomer, unassigned) [Example 84, 6-fluoro-1-(4-((2-oxopyrrolidin-1-yl)methyl)benzyl)-1,3-dihydro-2H-benzo[d]imidazol-2-one] is 1.6-fold lower in EC50: 16 nM for the first, 10 nM for the second. The second is the more potent here.

Compared with `O=C(NC1CC1)c1ccc(Cn2c(=O)[nH]c3ccccc32)s1` [Example 14], `CNC(=O)c1ccc(Cn2c(=O)[nH]c3ccccc32)s1` [Example 47, N-methyl-5-[(2-oxo-2,3-dihydro-1H-benzimidazol-1-yl)methyl]thiophene-2-carboxamide] is 1.5-fold higher in EC50: 2 nM for the first, 3 nM for the second.

`CS(=O)(=O)NCc1ccc(Cn2c(=O)[nH]c3ccccc32)s1` [Example 6, N-((5-((2-oxo-2,3-dihydro-1H-benzo[d]imidazol-1-yl)methyl)thiophen-2-yl)methyl)methanesulfonamide] and `CS(=O)(=O)NCc1ccc(Cn2c(=O)[nH]c3ccccc32)cc1` [Example 12, N-(4-((2-oxo-2,3-dihydro-1H-benzo[d]imidazol-1-yl)methyl)benzyl)methanesulfonamide] are within 1.5-fold of each other in EC50: 6 nM for the first, 8 nM for the second.

`O=c1[nH]c2ccccc2n1Cc1ccc(CN2CCCS2(=O)=O)cc1` [Example 26, 1-(4-((1,1-dioxidoisothiazolidin-2-yl)methyl)benzyl)-1,3-dihydro-2H-benzo[d]imidazol-2-one] and `O=C1OCCN1Cc1ccc(Cn2c(=O)[nH]c3ccccc32)cc1` [Example 74, 3-(4-((2-oxo-2,3-dihydro-1H-benzo[d]imidazol-1-yl)methyl)benzyl) oxazolidin-2-one] are within 1.5-fold of each other in EC50: 6 nM for the first, 7 nM for the second.

Compared with `O=c1[nH]c2c(F)cccc2n1Cc1ccccc1` [Example 68, 1-benzyl-4-fluoro-1,3-dihydro-2H-benzo[d]imidazol-2-one], `COc1ccccc1Cn1c(=O)[nH]c2c(C)cccc21` [Example 92, 1-(2-methoxybenzyl)-4-methyl-1,3-dihydro-2H-benzo[d]imidazol-2-one] is 3.5-fold lower in EC50: 1390 nM for the first, 396 nM for the second.

`O=C(Cc1cccc(Cn2c(=O)[nH]c3ccccc32)c1)Nc1cccnc1` [Example 103, 2-(3-((2-oxo-2,3-dihydro-1H-benzo[d]imidazol-1-yl)methyl)phenyl)-N-(pyridin-3-yl)acetamide] and `N#Cc1cccc(NC(=O)Cc2cccc(Cn3c(=O)[nH]c4ccccc43)c2)c1` [Example 104, N-(3-cyanophenyl)-2-(3-((2-oxo-2,3-dihydro-1H-benzo[d]imidazol-1-yl)methyl)phenyl)acetamide] are within 1.5-fold of each other in EC50: 4 nM for the first, 5 nM for the second.

Going from `CC(=O)NCc1sc(Cn2c(=O)[nH]c3ccccc32)cc1C` [Example 40, N-((3-methyl-5-((2-oxo-2,3-dihydro-1H-benzo[d]imidazol-1-yl)methyl)thiophen-2-yl)methyl)acetamide] to `CC(=O)Nc1ccc(Cn2c(=O)[nH]c3ccccc32)cc1F` [Example 32, N-{2-fluoro-4-[(2-oxo-2,3-dihydro-1H-benzimidazol-1-yl)methyl]phenyl} acetamide], the EC50 rises from 7 nM to 11 nM (1.6-fold). The first is the more potent here.

Compared with `Cn1cnnc1Cc1ccc(Cn2c(=O)[nH]c3ccccc32)cc1` [Example 53, 1-(4-((4-methyl-4H-1,2,4-triazol-3-yl)methyl)benzyl)-1,3-dihydro-2H-benzo[d]imidazol-2-one], `O=c1[nH]c2ccccc2n1Cc1ccc(Cn2ccnn2)cc1` [Example 82, 1-(4-((1H-1,2,3-triazol-1-yl)methyl)benzyl)-1H-benzo[d]imidazol-2 (3H)-one] is 4-fold higher in EC50: 12 nM for the first, 48 nM for the second. The first is the more potent here.

Compared with `O=c1n(Cc2ccccc2)c2ccccc2n1C(F)F` [Example 78, 1-benzyl-3-(difluoromethyl)-1,3-dihydro-2H-benzo[d]imidazol-2-one], `COc1cccc(Cn2c(=O)n(C)c3cc(Cl)ccc32)c1` [Example 90, 5-chloro-1-(3-methoxybenzyl)-3-methyl-1,3-dihydro-2H-benzo[d]imidazol-2-one] is 2-fold lower in EC50: 443 nM for the first, 227 nM for the second.

Going from `O=c1[nH]c2ccccc2n1Cc1ccc2c(c1)S(=O)(=O)CC2` [Example 28, 1-((1,1-dioxido-2,3-dihydrobenzo[b]thiophen-6-yl)methyl)-1,3-dihydro-2H-benzo[d]imidazol-2-one] to `O=c1[nH]c2ccccc2n1Cc1ccc2c(c1)CCC2` [Example 55, 1-((2,3-dihydro-1H-inden-5-yl)methyl)-1,3-dihydro-2H-benzo[d]imidazol-2-one], the EC50 falls from 33 nM to 0.8 nM (41-fold). The second is the more potent here.

`O=c1[nH]c2ccccc2n1Cc1cnc2c(c1)CCC2` [Example 34, 1-[(6,7-dihydro-5H-cyclopenta[b]pyridin-3-yl)methyl]-1,3-dihydro-2H-benzimidazol-2-one] and `O=C1CCCN1Cc1ccc(Cn2c(=O)[nH]c3ccccc32)cn1` [Example 41, 1-((6-((2-oxopyrrolidin-1-yl)methyl)pyridin-3-yl)methyl)-1,3-dihydro-2H-benzo[d]imidazol-2-one] are within 1.5-fold of each other in EC50: 153 nM for the first, 127 nM for the second.

Compared with `O=C1CCCN1Cc1ccc(Cn2c(=O)[nH]c3ccccc32)cc1Cl` [Example 18, 1-(3-chloro-4-((2-oxopyrrolidin-1-yl)methyl)benzyl)-1,3-dihydro-2H-benzo[d]imidazol-2-one], `O=C1CCCN1Cc1c(F)cc(Cn2c(=O)[nH]c3ccccc32)cc1F` [Example 23, 1-({3,5-difluoro-4-[(2-oxopyrrolidin-1-yl)methyl]phenyl}methyl)-1,3-dihydro-2H-benzimidazol-2-one] is 2.2-fold higher in EC50: 8 nM for the first, 18 nM for the second.

First: CN1CCN(c2cccc(Cn3c(=O)[nH]c4ccccc43)c2)CC1 [Example 80, 1-(3-(4-methylpiperazin-1-yl)benzyl)-1,3-dihydro-2H-benzo[d]imidazol-2-one]
Second: C[C@@H]1NC(=O)O[C@H]1c1cccc(Cn2c(=O)[nH]c3ccccc32)c1 [Example 31, 1-({3-[(4S,5S)-4-methyl-2-oxo-1,3-oxazolidin-5-yl]phenyl}methyl)-1,3-dihydro-2H-benzimidazol-2-one]
The EC50 of the first is 1.8-fold higher: 27 nM for the first, 15 nM for the second.

Going from `CNC(=O)Cc1ccc(Cn2c(=O)[nH]c3ccccc32)cc1` [Example 107, N-methyl-2-(4-((2-oxo-2,3-dihydro-1H-benzo[d]imidazol-1-yl)methyl)phenyl)acetamide] to `CC(=O)N(C)Cc1ccc(Cn2c(=O)[nH]c3ccccc32)cc1` [Example 73, N-methyl-N-(4-((2-oxo-2,3-dihydro-1H-benzo[d]imidazol-1-yl)methyl)benzyl)acetamide], the EC50 rises from 5 nM to 24 nM (4.8-fold).

Going from `CNC(=O)c1cc(Cn2c(=O)[nH]c3ccccc32)ccc1OC` [Example 17, 2-methoxy-N-methyl-5-((2-oxo-2,3-dihydro-1H-benzo[d]imidazol-1-yl)methyl)benzamide] to `CC(=O)N[C@H](C)c1ccc(Cn2c(=O)[nH]c3ccccc32)cc1` [Example 15, (R)—N-(1-(4-((2-oxo-2,3-dihydro-1H-benzo[d]imidazol-1-yl)methyl)phenyl)ethyl)acetamide], the EC50 rises from 12 nM to 19 nM (1.6-fold).

`O=c1[nH]c2ccccc2n1CC1CCN(c2ccccn2)CC1` [Example 115, 1-((1-(pyridin-2-yl)piperidin-4-yl)methyl)-1,3-dihydro-2H-benzo[d]imidazol-2-one] and `CS(=O)(=O)NC[C@H]1CC[C@H](Cn2c(=O)[nH]c3ccccc32)CC1` [Example 98, N-(((1r,4r)-4-((2-oxo-2,3-dihydro-1H-benzo[d]imidazol-1-yl)methyl)cyclohexyl)methyl)methanesulfonamide] are within 1.5-fold of each other in EC50: 1300 nM for the first, 1570 nM for the second.

Compound `CN(C)C(=O)Cc1ccc(Cn2c(=O)[nH]c3ccccc32)nc1` [Example 37, N,N-dimethyl-2-(6-((2-oxo-2,3-dihydro-1H-benzo[d]imidazol-1-yl)methyl)pyridin-3-yl)acetamide] has an EC50 of 1600 nM.
